System: Leukotriene B4
Assay: Human whole blood assay, Leukotriene B4 inhibition
Format: cell-based
Details: heparinized human whole blood; pre-incubated 15 minutes at 37° C.; stimulated with 50 μM calcium ionphor for 30 minutes at 37° C.; EIA; read-out: IC50 (Leukotriene B4 inhibition, LTB4 content of plasma)
Procedure: The following compound of the invention was tested for Leukotriene B4 inhibition in the human whole blood assay detailed below. [drawing 40]
Heparinized human whole blood was pre-incubated with selected concentrations of the test compound for 15 minutes at 37° C. and stimulated with 50 μM calcium ionphor for 30 minutes at 37° C. The reaction was stopped by placing samples on ice and cold centrifugation at 4° C. for 10 minutes at 1100×g. Test sample plasma was diluted in buffer and assayed for LTB4 content. Test compound activity was determined as per Cayman […] EIA and evaluated as IC50 [nM].

- IC50: 148 nM
Structure (SMILES): NC(=O)N(O)CC#CC1CC[C@@H](Cc2ccc(F)cc2)O1 (stereo partly shown)
